Source: patent US20090215759A1, “MODULATORS FOR AMYLOID BETA” (priority 2008, published 2009)

Structure (SMILES) | melting point [°C]
COc1cc(Nc2nccc(N3CCC(O)CC3)n2)ccc1-n1cnc(C)c1 | 197 to 200
Cc1cn(-c2ccc(Nc3nc(C)cc(Cc4ccccc4)n3)cc2F)cn1 | 155 to 158
Cc1cc(Cc2ccccc2)nc(Nc2ccc(-n3ccnc3CO)cc2)n1 | 95 to 98
Cc1cc(Cc2ccccc2)nc(Nc2ccc(-n3cnc(C)n3)c(F)c2)n1 | 183 to 185
COc1cc(Nc2nc(-c3ccc(Cl)cc3)cc(C(F)(F)F)n2)ccc1-n1cnc(C)c1 | 202 to 204
COc1cc(Nc2nc(-c3ccc(-n4ccnc4)cc3)cc(C(F)(F)F)n2)ccc1-n1cnc(C)c1 | 248 to 250
COc1cc(Nc2nc(-c3ccc(-n4cccn4)cc3)cc(C(F)(F)F)n2)ccc1-n1cnc(C)c1 | 252 to 254
CCOC(=O)c1cnc(Nc2ccc(-n3cnc(C)c3)c(OC)c2)nc1-c1cccc(C#N)c1 | 195 to 197
CCOC(=O)C(c1ccccc1)c1nc(Nc2ccc(-n3cnc(C)c3)c(OC)c2)ncc1-c1ccccc1 (centres unmarked) | 84 to 86
CCOC(=O)c1cnc(Nc2ccc(-n3cnc(C)c3)c(F)c2)nc1-c1ccc(Cl)cc1 | 232 to 234
COc1cc(Nc2nccc(-c3ccc(Cl)cc3)n2)ccc1-n1cnc(C)c1 | 202 to 204
COc1cc(Nc2nccc(-c3cccnc3)n2)ccc1-n1cnc(C)c1 | 204 to 206
Cc1cn(-c2ccc(Nc3nc(-c4ccc(Cl)cc4)cc(C(F)(F)F)n3)cc2F)cn1 | 248 to 250
CCOC(=O)c1cnc(Nc2ccc(-n3cnc(C)c3)c(F)c2)nc1-c1ccc(C(F)(F)F)cc1 | 219 to 221
Cc1cn(-c2ccc(Nc3nccc(-c4ccc(C(F)(F)F)cc4)n3)cc2F)cn1 | 196 to 197
CCOC(=O)c1cnc(Nc2ccc(-n3cnc(C)c3)c(OC)c2)nc1-c1ccc(Cl)cc1 [Example 28, Ethyl 4-(4-chloro-phenyl)-2-[3-methoxy-4-(4-methyl-imidazol-1-yl)-phenylamino]-pyrimidine-5-carboxylate] | 216 to 218
COc1cc(Nc2nc(C)cc(Cc3ccccc3)n2)ccc1-c1cnc(C)s1 [Example 209, (4-Benzyl-6-methyl-pyrimidin-2-yl)-[3-methoxy-4-(2-methyl-thiazol-5-yl)-phenyl]-amine] | 138 to 141
